Assay results as given in patent publication US8053603B2, “Tetralone-based monoamine reuptake inhibitors” (Sunovion Pharmaceuticals Inc., priority 2006, dated 2011).
Read-outs that look alike come from different tables or passages of the source.

Columns and labels:
[1] = molecular target: T1, recombinant human serotonin transporter (Homo sapiens, UniProt P31645); assay: Serotonin functional uptake assay for human reuptake transporter; assay type: cell-based; details: [3H]serotonin uptake, HEK-293 cells expressing human serotonin transporter; read-out: Human IC50 (nM) SERT
T1 construct: expressed in transfected cells; host or cells: HEK-293
T1 sequence (P31645 whole entry): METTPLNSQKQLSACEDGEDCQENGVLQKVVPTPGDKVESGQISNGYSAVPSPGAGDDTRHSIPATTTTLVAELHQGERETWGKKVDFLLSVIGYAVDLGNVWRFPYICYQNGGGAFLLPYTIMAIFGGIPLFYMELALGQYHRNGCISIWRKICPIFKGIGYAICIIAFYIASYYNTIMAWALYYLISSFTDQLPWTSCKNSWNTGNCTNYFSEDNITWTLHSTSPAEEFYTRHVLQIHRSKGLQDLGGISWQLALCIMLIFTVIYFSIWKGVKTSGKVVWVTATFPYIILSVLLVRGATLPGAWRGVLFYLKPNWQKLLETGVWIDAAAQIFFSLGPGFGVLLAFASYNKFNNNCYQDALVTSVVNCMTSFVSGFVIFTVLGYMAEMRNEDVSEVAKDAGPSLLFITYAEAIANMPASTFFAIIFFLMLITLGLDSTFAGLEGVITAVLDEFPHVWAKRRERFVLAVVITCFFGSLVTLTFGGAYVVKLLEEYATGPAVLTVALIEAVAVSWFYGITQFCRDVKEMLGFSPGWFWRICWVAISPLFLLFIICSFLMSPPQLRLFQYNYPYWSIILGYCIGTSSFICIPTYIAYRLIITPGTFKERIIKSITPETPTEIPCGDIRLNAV
Description: Serotonin Functional Uptake Assay for Human Reuptake Transporter
HEK-293 cells expressing human serotonin transporter were plated before the assay. […] Cells with internalized [^3H]serotonin were washed and the amount of tritium taken into cells is counted using a liquid scintillation counter to determine [^3H]serotonin uptake.

[2] = molecular target: T2, recombinant human norepinephrine transporter (Homo sapiens, UniProt P23975); assay: Norepinephrine functional uptake assay for human reuptake transporter; assay type: cell-based; details: [3H]norepinephrine uptake, HEK293 or MDCK cells expressing human norepinephrine transporter
T2 construct: expressed in transfected cells; host or cells: HEK293 or MDCK
T2 sequence (P23975 whole entry): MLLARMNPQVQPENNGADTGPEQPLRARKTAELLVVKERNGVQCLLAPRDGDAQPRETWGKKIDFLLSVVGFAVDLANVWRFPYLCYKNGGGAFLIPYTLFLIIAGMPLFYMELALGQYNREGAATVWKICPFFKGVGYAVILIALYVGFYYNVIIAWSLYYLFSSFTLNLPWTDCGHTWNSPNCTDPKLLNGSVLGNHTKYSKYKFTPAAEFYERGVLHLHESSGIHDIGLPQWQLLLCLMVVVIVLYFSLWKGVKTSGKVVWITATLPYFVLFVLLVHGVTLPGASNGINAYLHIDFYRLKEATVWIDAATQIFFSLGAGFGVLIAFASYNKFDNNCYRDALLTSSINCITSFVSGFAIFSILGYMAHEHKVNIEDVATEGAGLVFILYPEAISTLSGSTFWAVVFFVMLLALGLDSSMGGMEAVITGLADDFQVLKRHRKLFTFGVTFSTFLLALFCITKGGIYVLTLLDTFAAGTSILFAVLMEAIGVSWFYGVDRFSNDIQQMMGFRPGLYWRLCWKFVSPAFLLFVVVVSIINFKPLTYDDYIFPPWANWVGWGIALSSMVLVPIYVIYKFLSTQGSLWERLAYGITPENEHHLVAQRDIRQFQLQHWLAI
Description: Norepinephrine Functional Uptake Assay for Human Reuptake Transporter
The cells were plated before the assay. Test compound and/or vehicle was preincubated with cells in modified HEPES buffer pH 7.1 or pH 7.4 for 20 minutes at 18 to 25° C. . […] After the cells were washed to remove [^3H]norepinephrine not internalized, the cells were lysed, and the amount of tritium in the cell lysate was measured using a liquid scintillation counter to determine [^3H]norepinephrine uptake. Non-specific binding of tritium was measured in a control reaction containing 10 μM imipramine (or 10 μM nisoxetine), and was subtracted from the counts for assays to correct for non-specific binding of tritium. Reduction of [^3H]norepinephrine uptake by 50 percent or more (≧50%) relative to an uninhibited control reaction indicates significant inhibitory activity.

[3] = molecular target: T3, recombinant human dopamine transporter (Homo sapiens, UniProt Q01959); assay: Dopamine functional uptake assay for human reuptake transporter; assay type: cell-based; details: [3H]dopamine uptake, CHO-K1 or HEK293 cells expressing human dopamine transporter; read-out: Human IC50 (nM) DAT
T3 construct: expressed in transfected cells; host or cells: CHO-K1 or HEK293
T3 sequence (Q01959 whole entry): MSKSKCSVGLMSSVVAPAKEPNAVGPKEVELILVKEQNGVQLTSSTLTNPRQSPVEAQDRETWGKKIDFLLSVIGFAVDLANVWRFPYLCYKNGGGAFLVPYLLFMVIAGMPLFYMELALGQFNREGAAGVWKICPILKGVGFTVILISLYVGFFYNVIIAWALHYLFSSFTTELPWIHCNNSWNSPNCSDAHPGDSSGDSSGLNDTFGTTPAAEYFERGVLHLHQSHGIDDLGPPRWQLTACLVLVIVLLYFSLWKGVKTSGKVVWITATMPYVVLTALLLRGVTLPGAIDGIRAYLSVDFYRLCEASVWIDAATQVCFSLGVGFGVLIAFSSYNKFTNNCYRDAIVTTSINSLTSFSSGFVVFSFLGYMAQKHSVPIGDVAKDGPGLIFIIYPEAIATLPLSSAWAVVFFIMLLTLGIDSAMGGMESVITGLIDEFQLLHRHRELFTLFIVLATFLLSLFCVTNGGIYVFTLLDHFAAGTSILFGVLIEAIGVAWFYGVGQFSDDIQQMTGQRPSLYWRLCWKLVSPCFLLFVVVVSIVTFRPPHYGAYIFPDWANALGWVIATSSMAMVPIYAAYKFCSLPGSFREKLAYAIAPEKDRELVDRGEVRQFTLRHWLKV
Description: Dopamine Functional Uptake Assay for Human Reuptake Transporter
Either CHO-K1 or HEK293 cells expressing human recombinant dopamine transporter were plated before the assay. Test compound and/or vehicle was preincubated with cells in modified HEPES buffer pH 7.1 or pH 7.4 for 20 minutes at 18 to 25° C. and 50 nM [^3H]dopamine was then added for an additional timed incubation period (10 to 30 minutes). After washing the cells to remove [^3H]dopamine not internalized, the cells were lysed, and the amount of tritium in the lysate was measured using a liquid scintillation counter to determine [^3H]dopamine uptake. Non-specific binding of tritium was measured in a control reaction containing 10 μM nomifensine, and was subtracted from the counts for assays to correct for non-specific binding of tritium. Reduction of [^3H]dopamine uptake by 50 percent or more (≧50%) relative to an uninhibited control reaction indicates significant inhibitory activity.

[4] = in vivo; cited from earlier work
serotonin uptake sites = serotonin uptake sites (Homo sapiens, UniProt P31645); details: versus racemic 1-(3,4-dichlorophenyl)-3-azabicyclo[3.1.0]hexane; cited from earlier work
Chain of serotonin uptake sites (P31645 whole entry): as the sequence (P31645 whole entry) above

Structure (SMILES) | IC50 [1] | IC50 ([2]; read-out: Human IC50 (nM) NET) | IC50 [3] | immobility in the tail suspension test [4] | affinity for the serotonin uptake sites compared with the racemic compound (serotonin uptake sites) | IC50 ([2]; Human IC50 (nM) NET)
CC1C[C@@H](c2ccc(Cl)c(Cl)c2)c2ccccc2/C1=N\O (single isomer, unassigned) [Compound 58] | 1700 nM | 2840 nM | 436 nM | – | – | –
Clc1ccc([C@@]23CNC[C@@H]2C3)cc1Cl (single isomer, unassigned) [DOV 21,947, (+)-1-(3,4-dichlorophenyl)-3-azabicyclo[3.1.0]hexane] | – | – | – | dose-dependent reduction in immobility | significantly greater affinity | –
CN[C@H]1Cc2ccc(OC)cc2[C@@H](c2ccc(Cl)c(Cl)c2)C1 (stereo in doubt) [Compound 32a.3, 4-(3,4-dichlorophenyl)-6-methoxy-N-methyl-1,2,3,4-tetrahydronaphthalen-2-amine] | 4380 nM | 1050 nM | 1500 nM | – | – | –
CN[C@H]1Cc2cc(OC)ccc2[C@@H](c2ccc(Cl)c(Cl)c2)C1 (stereo in doubt) [Compound 32c.3, 4-(3,4-dichlorophenyl)-7-methoxy-N-methyl-1,2,3,4-tetrahydronaphthalen-2-amine] | 105 nM | 198 nM | 92 nM | – | – | –
CC(C1=Cc2ccccc2[C@H](c2ccc(Cl)c(Cl)c2)C1)N(C)C (stereo partly drawn) [Compound 48, 1-((S)-4-(3,4-dichlorophenyl)-3,4-dihydronaphthalen-2-yl)-N,N-dimethylethanamine] | 134 nM | 2720 nM | 2440 nM | – | – | –
CC(N)[C@@H]1Cc2ccccc2[C@H](c2ccc(Cl)c(Cl)c2)C1 (stereo partly drawn) [Compound 51, 1-((2S,4S)-4-(3,4-dichlorophenyl)-1,2,3,4-tetrahydronaphthalen-2-yl)ethanamine] | 2 nM | – | 30 nM | – | – | 12 nM
CC1(C)C[C@@H](c2ccc(Cl)c(Cl)c2)c2ccccc2C1N (stereo partly drawn) [Compound 59, (4S)-4-(3,4-dichlorophenyl)-2,2-dimethyl-1,2,3,4-tetrahydronaphthalen-1-amine] | 5500 nM | > 10000 nM | 1080 nM | – | – | –
